Reference: US7115666B2, “Nitrone compounds, pharmaceutical compositions containing the same and methods for treating inflammation and neuropathic pain” (Renovis, Inc., priority 2002, dated 2006)
“Also recorded” adds a separate entry of the source. Each block holds one compound with its values, some of them ahead of it.

Key:
[1] = tested on: collagen footpad edema in rats; assay: Collagen arthritis assay; type: in vivo, rat; settings: for paw volume differences after treatment: FIG. 3; for activity in rat collagen model: dose not stated (Assay Results summary)
Protocol: This assay is commonly used to screen and evaluate anti-inflammatory drug candidates. See, for example, Larsson et al., Arthritis & Rheumatism, 33:693–701, 1990 and references cited therein.
For these experiments, Female DA rats (7–8 weeks of age) were immunized with Type II collagen derived from bovine nasal septum as described in Cremer et al., J. of Immunology, 149:1045–1053, 1992. The collagen was dissolved and administered with incomplete Freund's adjuvant. Standard precautions were taken to avoid denaturing the collagen before its administration such as keeping the solution cold during preparation. Rats were immunized in the base of the tail on day 0. Dosing began on day 10 with rat paws weighed and volumes taken on day 21. The arthritis was evaluated by comparing paw weights and/or paw volumes at day 21. Compounds reducing paw weight or paw volumes by at least about 30% compared to the controls were also considered effective in this assay.

[2] = tested on: chronic constriction injury (CCI) rat model of peripheral neuropathy; assay: Cold allodynia assay in chronic constriction injury (CCI) rats; type: in vivo
Protocol: The purpose of the following studies was to determine whether test compounds had analgesic activity in a chronic constriction injury (CCI) rat model of peripheral neuropathy. Neuropathic rats were treated with PBN, and other test compounds or 2.5% DMSO in 1.0% MC as a vehicle and tested in a cold allodynia assay to evaluate nociceptive responses.
One week prior to the cold allodynia assay, CCI rats were prepared as follows. Male Sprague Dawley rats (158–224 g) had their right sciatic nerve loosely ligated under aseptic conditions. To observe the cold allodynia response, their paw withdrawal latency response was determined by placing rats in a cold water bath (2–4° C., 2.5 cm deep). […] Rats rendered neuropathic in the right limb display an exaggerated withdrawal response on the neuropathic side (right rear limb). For the cold allodynia assay, two pre-dose latency times to cold were recorded. The end point was an exaggerated removal of the paw from the water. […] The remaining rats were divided into treatment groups. Two separate latency times were obtained for each rat before the dose of each drug. In the first study shown in FIG. 1, rats were then dosed with Compound 1 (30 mg/kg, po) or PBN (100 mg/kg, po) as a suspension in Veh, or Veh alone (1 ml/kg, po). In the second study shown as FIG. 2, three different doses of Compound 1 (10, 30, 100 mg/kg, po) were administered to CCI rats. In both studies, latency to withdraw the ligated leg up above water level was recorded using an electronic timer. The tester was blinded to the animal's treatment group at the time of testing.
Maximum time of latency in any trial was 20 sec. Statistical significance was assessed for paired groups (pre-dose vs. post-dose) using a Wilcoxon test and between non-paired groups using a Kruskal-Wallis with a Dunn's test post-hoc. A probability value of p<0.05 was identified as statistically significant.

[3] = tested on: Taxol-induced neuropathic pain model in mice; assay: Taxol-induced neuropathic pain model, mechanical allodynia (von Frey filament); type: in vivo
Text: Taxol is a chemotherapeutic reagent for treatment of cancer patients. Cancer patients under Taxol chemotherapy can develop neuropathic pain, with a symptom of severe mechanical allodynia, so that a light touch (non-noxious stimulus in a normal condition) becomes painful. […] Recent studies have shown that Taxol is involved in TNF-alpha release in microglia cells. As one of the clinically relevant models, Taxol-induced neuropathic pain was developed in mice and rats. It is believed that small-diameter high threshold nociceptive C-fibers in the peripheral sensory nervous systems are largely, if not exclusively, affected in the Taxol-induced neuropathic pain models.
In this series of experiments, five-week old, male C57B1/6 mice were purchased from Charles River and housed at the Renovis animal facility in South San Francisco. Mice were trained for one week in an enclosure made of Plexiglas with dimensions of 2 in×2.5 in×3.5 in (W, H, and L) with a meshed metal support. The baseline of response to mechanical stimulus was measured using a von Frey Filament (0.6 g=3.84 mN). Normally, the baseline response is between 0 to 40%.
Taxol was dissolved (1 mg/ml) in 50% Cremophor EL and 50% alcohol, and freshly diluted with saline to the final concentration of 0.2 mg/ml in 10% Cremophor EL, 10% alcohol. Mice were administered Taxol at 1 mg/kg of body weight, via i.p. daily, while the animals of the control group received vehicle (10% Cremophor EL and 10% alcohol in saline).
Animals receiving this daily dose of Taxol will develop neuropathic pain. The mechanical allodynia was measured at day 7, 8, or 14 after Taxol administration.
A quantity of 200 mg of compound 14 (Example 14) was dissolved in 0.4 ml of 100% DMSO to yield a concentration of 500 mg/ml, and was kept at 4° C. until use. Methylcellulose was dissolved in deionized-distilled water to yield a concentration of 1%. The freshly prepared meythlcellulose was used to make a suspension of the compound, 10 mg of compound in 2.5% DMSO (V/V) and 1% methylcellulose. The suspension was sonicated for 6 min with a 5 second interval every 30 seconds before administration to animals.
A quantity of 50 mg/kg (body weight) compound or vehicle (2.5% DMSO and 1% methylcellulose), 100 μl/20 g (body weight) was given to animals via gavage feeding procedure in a randomized, blinded fashion. The animals were then placed in the enclosure for assay. Mechanical allodynia was measured with von Frey filament (0.6 g=[…]) at various times after administration.
Referring to FIG. 5, baseline in the group of animals was measured as 25+/−4% (n=24, ±SEM) before induction of neuropathic pain with Taxol (or sham treatment), where the response was measured with a von Frey filament (0.6 g=3.84 mN) as the percent of trials a withdrawal response is observed after probing with the filament. The higher the percentage, the greater the inferred pain.
Sixteen animals were treated with Taxol daily to induce neuropathic pain. Mechanical allodynia was assayed at day 8; average withdrawal response was measured as 81±5% (n=16, ±SEM). Sixteen animals were treated with matching vehicle to create sham animals. The Taxol and sham animals were then separated randomly into two groups of 8 animals each for drug vs. vehicle testing. Withdrawal responses to a von Frey filament probe were measured at 1, 6, 24, and 72 hours post-administration of drug or vehicle control, and averaged for each animal. […] Negative values reflect a reduction in inferred pain.
For mouse neuropathic pain studies, C57B1/6 strain, five-weeks old male mice were obtained from Charles River, San Diego, Calif. A total of 120 mice were used for the studies. 4 mice per cage were housed under standard conditions with 12-hour light and 12-hour dark cycles (in Renovis, Inc, South San Francisco facility). For rat neuropathic pain studies, male Sprague-Dawley rats, with body weights ranging from 180–200 grams, were obtained from Harlan. A total of 42 rats were used for this study. […]

[4] = tested on: adjuvant-induced footpad edema in rats; assay: Adjuvant assay (adjuvant-induced footpad edema); type: in vivo, rat
Protocol: This assay is a model for chronic inflammation. See, for example, B. M. Weichman, “Rat Adjuvant Arthritis: A Model of Chronic Inflammation,” Pharmacological Methods in the Control of Inflammation, 363–380 (1989) and references cited therein.
In this assay, Male Lewis rats weighing between 180–220 g were lightly anesthetized with an ip injection of 30 mg/kg of sodium pentobarbital (50 mg/ml). Desiccated Mycobacterium butyrium (Difco, 20 mg/ml) suspended in mineral oil was injected (50 μL) at both sides of the base of the tail under the skin. A line was tattooed on both rear paws at 5 mm above the angle of the ankle. The paw volumes, under the line, were measured by volume displacement using a plethysmometer (Ugo Basile) at the day of adjuvant injection (day 0) and on day 14. On day 14, animals with paw volumes equal to the mean of paw volumes ±SD were randomized into treatment groups. Rats which fell outside ±1 SD were not used in the experiment. One group received vehicle (1% methyl cellulose) by the po route and the other group received indomethacin (3 mg/kg suspended in 1% methyl cellulose). Dosing began on day 14, and continued until final assessment on day 21 post-adjuvant injection. […] This group has a slightly positive volume increase when paw volumes on day 21 are subtracted from day 0 values due to growth of the rat. […]

[5] = FIG. 2, 30 mg/kg, p.o., 90 min post-dose
[6] = FIG. 2, 100 mg/kg, p.o., 90 min post-dose
[7] = Taxol/mice, P.O., Single dosing, 50 Mg/Kg body weight
[8] = dose not stated (Assay Results summary)

SMILES: CC(C)(C)[N+]([O-])=CCCc1ccccc1 [Compound 1, N-tert-butyl-C-(2-phenylethyl)nitrone]
paw volume differences after treatment ([1]; dose not stated): unexpected activity
total gait scores as an index of pain ([1]; FIG. 4, lowering indicates relief from pain): significant activity; also recorded: activity as an analgesic
activity in rat collagen model [1]: significantly active
activity in a model of painful peripheral neuropathy ([2]; 10 mg/kg, po): significantly active
post-dose latency score vs. vehicle ([2]; FIG. 1, 30 mg/kg, p.o., 90 min post-dose, Kruskal-Wallis, Dunn's test): signficant post-dose latency score over vehicle
latency to cold stimulus, post-dose vs. pre-dose score ([2]; FIG. 1, 30 mg/kg, p.o., 90 min post-dose, Wilcoxon test): Significantly higher latency scores
latency time, post-dose vs. pre-dose score ([2]; FIG. 2, 10 mg/kg, p.o., 90 min post-dose): significantly increased latency time
latency time, post-dose vs. pre-dose score [2, 5]: significantly increased latency time
post-dose latency score vs. vehicle [2, 5]: significant post-dose latency score over vehicle
latency time, post-dose vs. pre-dose score [2, 6]: significantly increased latency time
post-dose latency score vs. vehicle [2, 6]: significant post-dose latency score over vehicle
time postdosing of analgesic effect ([3]; 50 mg/kg single dose via oral gavage): 1 h
effect on mechanical allodynia (Taxol-induced pain) ([3]; 50 mg/kg single dose via oral gavage, von Frey filament 0.6 g, measured 1, 6, 24, up to 48 or 72 hours postdosing): analgesic effect
Effective time Hour post dosing [3, 7]: ~1 h
extent of block of mechanical allodynia [3, 7]: partial

SMILES: COc1ccc(CCC=[N+]([O-])C(C)(C)C)cc1 [Compound 4, N-tert-butyl-C-[2-(4-methoxyphenyl)ethyl]nitrone]
Effective time Hour post dosing [3, 7]: None via p.o.

SMILES: CC(C)Oc1ccc(CCC=[N+]([O-])C(C)(C)C)cc1 [Compound 6, N-tert-butyl-C-[2-(4-isopropoxyphenyl)ethyl]nitrone]
Effective time Hour post dosing [3, 7]: None via p.o.

melting point: 54 to 57 °C
SMILES: CCOc1ccc(CCC=[N+]([O-])C(C)(C)C)cc1 [Compound 7, N-tert-butyl-C-[2-(4-ethoxyphenyl)ethyl]nitrone]
Effective time Hour post dosing [3, 7]: None via p.o.

melting point: 160 °C
SMILES: CC(C)(C)[N+]([O-])=CCCc1ccc(NS(=O)(=O)c2ccccc2)cc1 [Compound 10, N-tert-butyl-C-[2-(4-benzenesulfonamidophenyl)ethyl]nitrone]

SMILES: CCC(C=[N+]([O-])C(C)(C)C)c1ccc(C(C)(C)C)cc1 (stereo not drawn) [Compound 15, N-tert-butyl-C-[1-(4-tert-butylphenyl)propyl]nitrone]
Effective time Hour post dosing [3, 7]: None via p.o.

SMILES: COc1ccc(CC(C)C=[N+]([O-])C(C)(C)C)cc1 (stereo not drawn) [Compound 16, N-tert-butyl-C-[1–2-(4-methoxyphenyl)methylethyl]nitrone]
Effective time Hour post dosing [3, 7]: None via p.o.

melting point: 97.2 °C
SMILES: [O-][N+](=CCCc1ccccc1)C1CCCCC1 [Compound 18, N-Cyclohexyl-C-(2-phenylethyl)nitrone]

SMILES: CC(C)(C)c1cc(CCC=[N+]([O-])C(C)(C)C)cc(C(C)(C)C)c1O [Compound 21]
Effective time Hour post dosing [3, 7]: None via p.o.

SMILES: COc1ccc2c(c1)c(CC(=O)O)c(C)n2C(=O)c1ccc(Cl)cc1 [Indomethacin]
paw volume as compared to vehicle controls ([4]; 3 mg/kg, po, dosing day 14 to day 21 post-adjuvant): significantly reduced paw volume

SMILES: CC(C)(C)[N+]([O-])=Cc1ccccc1 [PBN, N-tert-butyl phenyl nitrone, reference compound]
paw volume differences after treatment ([1]; 100 mg/kg): inactive
activity in rat collagen model [1]: completely inactive
activity in cold allodynia assay ([2]; FIG. 1, 100 mg/kg, p.o., 90 min post-dose): completely inactive
activity in the analgesic assay [2, 8]: completely inactive
activity in the adjuvant assay [4, 8]: completely inactive
